Test system: NL-RLuc virus (recombinant HIV NL4-3 with Renilla Luciferase) in MT-2 cells
Assay: Inhibition of HIV replication (NL-RLuc virus in MT-2 cells, luciferase readout)
Type: cell-based, human immunodeficiency virus (HIV)
Conditions: MT2, 120 h, NL-RLuc virus infecting MT-2 cells, 5 days of incubation, 10% FBS, luciferase quantitation; at least 2 experiments
Description: Inhibition of HIV Replication:
A recombinant NL-RLuc proviral clone was constructed in which a section of the nef gene from NL4-3 was replaced with the Renilla Luciferase gene. This virus is fully infectious and can undergo multiple cycles of replication in cell culture. In addition, the luciferous reporter provides a simple and easy method for quantitating the extent of virus growth and consequently, the antiviral activity of test compounds. The plasmid pNLRLuc contains the proviral NL-Rluc DNA cloned into pUC 18 at the PvuII site. The NL-RLuc virus was prepared by transfection of 293T cells with the plasmid pNLRLuc. Transfections were performed using the LipofectAMINE PLUS kit from Invitrogen (Carlsbad, Calif.) according to the manufacturer and the virus generated was titered in MT-2 cells. For susceptibility analyses, the titrated virus was used to infect MT-2 cells in the presence of compound, and after 5 days of incubation, cells were processed and quantitated for virus growth by the amount of expressed luciferase. Assay media was RPMI 1640 supplemented with 10% heat inactivated fetal bovine serum (FBS), 100 units/ml penicillin G/100 units/ml streptomycin, 10 mM HEPES buffer pH 7.55 and 2 mM L-glutamine. The results from at least 2 experiments were used to calculate the EC50 values. Luciferase was quantitated using the Dual Luciferase kit from Promega (Madison, Wis.). Susceptibility of viruses to compounds was determined by incubation in the presence of serial dilutions of the compound. The 50% effective concentration (EC50) was calculated by using the exponential form of the median effect equation where (Fa)=1/[1+(ED50/drug conc.)^m] (Johnson V A, Byington R T. Infectivity Assay. In Techniques in HIV Research. ed. Aldovini A, Walker B D. 71-76. New York: Stockton Press. 1990).

First: Cc1nc2cc3nn2c(c1[C@H](OC(C)(C)C)C(=O)O)N1CCC(C)(CC1)OCC=CCc1ccccc1C(=O)NC3 [Example 14, (2S)-2-(tert-Butoxy)-2-[4,24-dimethyl-12-oxo-23-oxa-1,5,7,8,11-pentaazapentacyclo[22.2.2.1^6,^9.0^2,^7.0^13,^18]nonacosa-2,4,6(29),8,13(18),14,16,20-octaen-3-yl]acetic acid]
Second: Cc1nc2cc3nn2c(c1[C@H](OC(C)(C)C)C(=O)O)N1CCC(C)(CC1)OCCCCc1ccccc1C(=O)NC3 [Example 15, (2S)-2-(tert-Butoxy)-2-{4,24-dimethyl-12-oxo-23-oxa-1,5,7,8,11-pentaazapentacyclo[22.2.2.1^6,^9.0^2,^7.0^13,^18]nonacosa-2,4,6(29),8,13(18),14,16-heptaen-3-yl}acetic acid]
The EC50 of the first is 2.7-fold lower: 45 nM for the first, 120 nM for the second. The first is the more potent here.

Cc1nc2cc3nn2c(c1[C@H](OC(C)(C)C)C(=O)O)N1CCC(C)(CC1)OCCCCOc1ccccc1CC(=O)NC3 [Example 17, (2S)-2-(tert-Butoxy)-2-{4,26-dimethyl-12-oxo-20,25-dioxa-1,5,7,8,11-pentaazapentacyclo[24.2.2.1^6,^9.1^2,^7.0^14,^19]hentriaconta-2,4,6(31),8,14(19),15,17-heptaen-3-yl}acetic acid] and Cc1nc2cc3nn2c(c1[C@H](OC(C)(C)C)C(=O)O)N1CCC(C)(CC1)OCCCc1ccccc1CCC3 [Example 25, (2S)-2-(tert-Butoxy)-2-{4,23-dimethyl-22-oxa-1,5,7,8-tetraazapentacyclo[21.2.2.1^6,^9.0^2,^7.0^13,^18]octacosa-2,4,6(28),8,13(18),14,16-heptaen-3-yl}acetic acid] are within 1.5-fold of each other in EC50: 24 nM for the first, 31 nM for the second.

Cc1nc2cc3nn2c(c1[C@H](OC(C)(C)C)C(=O)O)N1CCC(C)(CC1)OCCCCCc1cccc(c1)COC3 [Example 59, (2S)-2-(tert-Butoxy)-2-{4,24-dimethyl-11,23-dioxa-1,5,7,8-tetraazapentacyclo[22.2.2.1^6,^9.1^13,^17.0^2,^7]triaconta-2,4,6(30),8,13(29),14,16-heptaen-3-yl}acetic acid] and Cc1nc2cc3nn2c(c1[C@H](OC(C)(C)C)C(=O)O)N1CCC(C)(CC1)OCCCc1ccccc1COC3 [Example 23, (2S)-2-(tert-Butoxy)-2-{4,23-dimethyl-11,22-dioxa-1,5,7,8-tetraazapentacyclo[21.2.2.1^6,^9.0^2,^7.0^13,^18]octacosa-2,4,6(28),8,13(18),14,16-heptaen-3-yl}acetic acid] are within 1.5-fold of each other in EC50: 16 nM for the first, 11 nM for the second.

Compared with Cc1nc2cc3nn2c(c1[C@H](OC(C)(C)C)C(=O)O)N1CCC(C)(CC1)OCCCC[C@H](C)Oc1cc(F)ccc1CCC3 [Example 39, (2S)-2-(tert-Butoxy)-2-[(20S)-16-fluoro-4,20,26-trimethyl-19,25-dioxa-1,5,7,8-tetraazapentacyclo[24.2.2.1^6,^9.0^2,^7.0^13,^18]hentriaconta-2,4,6(31),8,13(18),14,16-heptaen-3-yl]acetic acid], Cc1nc2cc3nn2c(c1[C@H](OC(C)(C)C)C(=O)O)N1CCC(C)(CC1)OCCCCCc1cc(F)ccc1CN(C1CC1)C3 [Example 62, (2S)-2-(tert-Butoxy)-2-{11-cyclopropyl-16-fluoro-4,25-dimethyl-24-oxa-1,5,7,8,11-pentaazapentacyclo[23.2.2.1^6,^9.0^2,^7.0^13,^18]triaconta-2,4,6(30),8,13(18),14,16-heptaen-3-yl}acetic acid] is 8.2-fold higher in EC50: 5 nM for the first, 41 nM for the second. The first is the more potent here.

Going from Cc1cc2c(cc1Cl)COCc1cc3nc(C)c([C@H](OC(C)(C)C)C(=O)O)c(n3n1)N1CCC(C)(CC1)OCCCCC[C@H](C)O2 [Example 70, (2S)-2-(tert-Butoxy)-2-[(20S)-15-chloro-4,16,20,27-tetramethyl-11,19,26-trioxa-1,5,7,8-tetraazapentacyclo[25.2.2.1^6,^9.0^2,^7.0^13,^18]dotriaconta-2,4,6(32),8,13,15,17-heptaen-3-yl]acetic acid] to Cc1nc2cc3nn2c(c1[C@H](OC(C)(C)C)C(=O)O)N1CCC(C)(CC1)OCCCCOc1cccc(c1)-c1cn(nn1)C3 [Example 6, (2S)-2-(tert-Butoxy)-2-{4,26-dimethyl-20,25-dioxa-1,5,7,8,11,12,13-heptaazahexacyclo[24.2.2.1^6,^9.1^11,^14.1^15,^19.0^2,^7]tritriaconta-2,4,6(33),8,12,14(32),15(31),16,18-nonaen-3-yl}acetic acid], the EC50 rises from 43 nM to 80 nM (1.9-fold).

With Cc1cc(CN2CC=CCOC3(C)CCN(CC3)c3c([C@H](OC(C)(C)C)C(=O)O)c(C)nc4cc(nn34)CNC(=O)C2=O)ccc1F [Example 18, (2S)-2-(tert-Butoxy)-2-[14-[(4-fluoro-3-methylphenyl)methyl]-4,20-dimethyl-12,13-dioxo-19-oxa-1,5,7,8,11,14-hexaazatetracyclo[18.2.2.1^6,^9.0^2,^7]pentacosa-2,4,6(25),8,16-pentaen-3-yl]acetic acid] the EC50 was 122 nM.

Same assay, conditions: NL-RLuc virus infecting MT-2 cells, 5 days of incubation, 10% FBS, luciferase quantitation; at least 2 experiments; read-out: EC50

First: Cc1nc2cc3nn2c(c1[C@H](OC(C)(C)C)C(=O)O)N1CCC(C)(CC1)O/C=C\CCc1ccccc1OC3 [Example 21, (2S)-2-(tert-Butoxy)-2-[(20Z)-4,23-dimethyl-11,22-dioxa-1,5,7,8-tetraazapentacyclo[21.2.2.1^6,^9.1^2,^7.0^12,^17]octacosa-2,4,6(28),8,12(17),13,15,20-octaen-3-yl]acetic acid]
Second: Cc1nc2cc3nn2c(c1[C@H](OC(C)(C)C)C(=O)O)N1CCC(C)(CC1)OC=CCCOC1(CCCCC1)c1cn(nn1)C3 [Example 7, (2S)-2-(tert-Butoxy)-2-[4′,22′-dimethyl-16′,21′-dioxa-1′,5′,7′,8′ 11′,12′,13′-heptaazaspiro[cyclohexane-1,15′-pentacyclo[20.2.2.1^6,^9.1^11,^14.0^2,^7]octacosane]-2′,4′,6′(28′),8′,12′,14′(27′),19′-heptaen-3′-yl]acetic acid]
The EC50 of the first is 4.8-fold higher: 646 nM for the first, 134 nM for the second.

Same assay, conditions: {}

First: Cc1ccc(C2CCCCOC3(C)CCN(CC3)c3c([C@H](OC(C)(C)C)C(=O)O)c(C)nc4cc(nn34)CO2)cc1 (stereo partly drawn) [Example 46, (2S)-2-(tert-butoxy)-2-[4,18-dimethyl-12-(4-methylphenyl)-11,17-dioxa-1,5,7,8-tetraazatetracyclo[16.2.2.1^6,^9.0^2,^7]tricosa-2,4,6(23),8-tetraen-3-yl]acetic acid]
Second: Cc1nc2cc3nn2c(c1[C@H](OC(C)(C)C)C(=O)O)N1CCC(C)(CC1)OCCCCC(c1ccccc1)Oc1ccc(F)cc1COC3 (stereo partly drawn) [Example 51, (2S)-2-(tert-butoxy)-2-{15-fluoro-4,26-dimethyl-20-phenyl-11,19,25-trioxa-1,5,7,8-tetraazapentacyclo[24.2.2.1^6,^9.0^2,^7.0^13,^18]hentriaconta-2,4,6(31),8,13(18),14,16-heptaen-3-yl}acetic acid]
The EC50 of the first is 41-fold higher: 735 nM for the first, 18 nM for the second.

CCCC1CCCCOC2(C)CCN(CC2)c2c([C@H](OC(C)(C)C)C(=O)O)c(C)nc3cc(nn23)COCc2cc(F)ccc2O1 (stereo partly drawn) [Example 49, (2S)-2-(tert-butoxy)-2-{15-fluoro-4,26-dimethyl-20-propyl-11,19,25-trioxa-1,5,7,8-tetraazapentacyclo[24.2.2.1^6,^9.0^2,^7.0^13,^18]hentriaconta-2,4,6(31),8,13(18),14,16-heptaen-3-yl}acetic acid] gave an EC50 of 5 nM.

— US9273067B2, “Pyrazolopyrimidine macrocycles as inhibitors of human immunodeficiency virus replication” (BRISTOL-MYERS SQUIBB COMPANY, priority 2014, dated 2016)
